Holding throughout (assay type): in vivo
Series [1] relates to Aedes aegypti mosquito. The experiment in a line: USDA Petri Dish Method, 3 min exposure to treated glazed tile. The following applies: ethiprole 0.01% AI with or without adjuvant. Summed up:
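USDA Petri Dish screen: groups of twenty female Aedes aegypti (4-6 days old) held 3 minutes on dried acetone-based treatments (with/without adjuvant), then transferred to untreated card. Replicated three or more times; knockdown followed over time, mortality recorded 24 hours post-exposure with sucrose-soaked cotton available.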

In series [2] the test system is Musca domestica, resistant strain Reichswald. In words: Efficacy of formulations on surfaces (glazed/unglazed tiles), house flies, continuous exposure. The following applies: Table 115; 0.02% = 10 mg Ethiprole/m^2 on glazed tiles; EC formulation; continuous exposure.
In series [3] the test system is Musca domestica, susceptible strain WHO(N). The series is described as above. The following applies: Table 114; 0.02% = 10 mg Ethiprole/m^2 on glazed tiles; EC formulation; continuous exposure.
Series [4] concerns Red Imported Fire ant (RIFA), Solenopsis invicta. The experiment in a line: Knockdown/mortality of ant workers under continuous exposure on treated glazed tile. The following applies: ethiprole 0.01% in the absence of the adjuvant (FIG. 54). An excerpt:
Treatments were allowed to dry overnight. […] Treatments were replicated minimum three times.
Treatments were allowed to dry overnight. […] Treatments were replicated a minimum of three times.

The subject of series [5] is Odorous House ant, Tapinoma sessile. The description is as above. The following applies: ethiprole 0.01% in the absence of the adjuvant (FIG. 53). A digest of the protocol: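 Each tile surface (about 5″×5″) was treated, left to dry overnight and tested in a minimum of three replicates.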

For `CC[S+]([O-])c1c(C#N)nn(-c2c(Cl)cc(C(F)(F)F)cc2Cl)c1N` (stereo not shown) [ethiprole], the “mortality rate (peak / increased over time), FIG. 50” value in series [1] is on record as 15-18%. In addition, in series [2], the “% KD and Mortality 15′” value is recorded as 0%; the “% KD and Mortality 30′” value was found to be 0%; the “% KD and Mortality 1 h” value turned out to be 0%; the “% KD and Mortality 2 h” value turned out to be 0%. Also, in series [2], the “% KD and Mortality 3 h” value turned out to be 0%; the “% KD and Mortality 4 h” value was determined as 10%; the “% KD and Mortality 6 h” value was 15%; the “% KD and Mortality 24 h” value came out at 60%. Moreover, in series [3], the “% KD and Mortality 15′” value turned out to be 0%; the “% KD and Mortality 30′” value is 0%; the “% KD and Mortality 1 h” value amounted to 0%; the “% KD and Mortality 2 h” value turned out to be 5%. In addition, in series [3], the “% KD and Mortality 3 h” value is 15%; the “% KD and Mortality 4 h” value came to 15%; the “% KD and Mortality 6 h” value was 25%; the “% KD and Mortality 24 h” value is 95%. The “mortality in 3 hours” value in series [4] is listed as less than 5%. Also, the “mortality in 2 hours” value in series [5] is reported as “around 4%”.
